From ChEMBL document CHEMBL1124119, “(+/-)-4-tert-butyl-3-cyano-1-(4-ethynylphenyl)-2,6,7-trioxabi cyclo[2.2.2]octane: synthesis of a remarkably potent GABAA receptor antagonist” (J Med Chem, 1988) come the findings set out here.

By IC50 is commonly meant the concentration that inhibits the measured activity by half. Higher therefore signals a need for much substance. For orientation: inhibition means how much of the control response was suppressed.

Assay [1] concerns the target Gamma-aminobutyric acid receptor subunit gamma-1 (Rattus norvegicus, UniProt P23574). In words: Inhibition of GABA-stimulated 36Cl- uptake by membrane vesicles of rat cerebral cortex. The format is functional, tissue-based.
Assay [2] concerns the target GABA-A receptor; anion channel. In words: In vitro inhibition of [35S]-TBPS binding to EDTA/water-dialyzed mouse brain P2 membranes. The assay is classed as tissue-based.
Assay [3] addresses GABA-A receptor; anion channel. Nature of the assay: In vitro inhibition of [35S]TBPS binding to EDTA/water-dialyzed mouse brain P2 membranes. The assay is classed as tissue-based.
Assay [4] has as its target T1, GABA-A receptor; anion channel (Mus musculus) (UniProt Q8BHJ7+P26048+Q8QZW7+P50571+Q9R0Y8+P22723+A2AMW3+P62812+Q9JLF1+P26049+P22933+Q9D6F4+P63080+P27681+P16305). Nature of the assay: Ex vivo inhibition of [35S]TBPS binding to mouse brain membranes in the presence of Diazepam after 30 min. The assay is classed as tissue-based. The note with it: Membrane.
Assay [5] has as its target T1, GABA-A receptor; anion channel (Mus musculus). In words: Ex vivo inhibition of [35S]TBPS binding to mouse brain membranes in the presence of phenobarbital after 30 min. The format is tissue-based. The note with it: Membrane.
The target is the same in assay [6]. In words: Ex vivo inhibition of [35S]TBPS binding to mouse brain membranes after 30 min. The assay is classed as tissue-based. Particulars: Membrane.

Sequence of Gamma-aminobutyric acid receptor subunit gamma-1 (P23574 whole entry): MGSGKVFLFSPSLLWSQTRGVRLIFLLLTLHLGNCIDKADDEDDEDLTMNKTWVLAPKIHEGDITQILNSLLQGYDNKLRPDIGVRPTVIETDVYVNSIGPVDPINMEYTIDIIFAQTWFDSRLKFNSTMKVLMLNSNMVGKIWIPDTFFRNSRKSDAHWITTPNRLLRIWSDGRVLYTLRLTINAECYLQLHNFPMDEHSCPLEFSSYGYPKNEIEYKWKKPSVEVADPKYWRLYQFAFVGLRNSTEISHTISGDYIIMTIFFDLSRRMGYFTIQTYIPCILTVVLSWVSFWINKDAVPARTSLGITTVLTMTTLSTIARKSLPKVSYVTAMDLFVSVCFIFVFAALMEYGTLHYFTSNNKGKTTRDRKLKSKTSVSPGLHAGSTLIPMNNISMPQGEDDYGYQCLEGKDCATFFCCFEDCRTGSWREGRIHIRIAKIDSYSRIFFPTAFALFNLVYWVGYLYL

With `CC(C)(C)C12COC(c3ccc(C#N)cc3)(OC1)OC2`, the results for the IC50 in assay [1] and in assay [2] were 40 nM and 2.5 nM, respectively.

Take `C#Cc1ccc(C23OCC(C(C)(C)C)(CO2)C(C#N)O3)cc1` (configuration not stated): the IC50 in assay [1] was 25 nM; in assay [3], 0.25 nM. Also, the inhibition in assay [4] is 59%; in assay [5], 61%; in assay [6] it was 68%.
